This is an account of results in patent publication US8574563B2 (Bristol-Myers Squibb Company, priority 2006, dated 2013).

One assay relates to HCV 1b-377-neo replicon cells. The assay can be described thus: HCV replicon assay, HCV 1b-377-neo replicon cells (1b FRET). In kind it is cell-based, Hepatitis C virus genotype 1b. Conditions: HCV 1b-377-neo replicon cells; HCV 1b genotype. In outline: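 Compounds tested in HCV genotype 1b-377-neo replicon cells with a FRET read-out. Cells resistant to a reference NS5A inhibitor through a Y2065H NS5A mutation were run alongside wild-type cells.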
Background: Replicon systems follow genome replication, usually without infectious particles.
Consider `COC(=O)N[C@H](C(=O)N1CCC[C@H]1c1ncc(-c2ccc(-c3ccc(-c4cnc([C@@H]5CCCN5C(=O)[C@@H](NC(=O)OC)C(C)C)[nH]4)cc3C(N)=O)cc2)[nH]1)C(C)C` [Example M118, methyl ((1S)-1-(((2S)-2-(5-(2′-carbamoyl-4′-(2-((2S)-1-((2S)-2-((methoxycarbonyl)amino)-3-methylbutanoyl)-2-pyrrolidinyl)-1H-imidazol-5-yl)-4-biphenylyl)-1H-imidazol-2-yl)-1-pyrrolidinyl)carbonyl)-2-methylpropyl)carbamate], for which the “EC50 range against HCV 1b (Table 2, Range)” value is reported as “>A”.

Staying with this assay, now noted: Hepatitis C virus, HCV 1b-377-neo replicon cells; HCV 1b genotype; read-out: EC50 range against HCV 1b (Table 2, Range).
Usually EC50 stands for the concentration at which the effect is half-maximal. Consider `COC(=O)N[C@@H](C(=O)N1CCC[C@H]1c1ncc(-c2ccc(-c3ccc(-c4cnc([C@@H]5CCCN5C(=O)c5ccc(N(C)C)cc5)[nH]4)cc3)cc2)[nH]1)c1ccccc1` [Example 84-33, methyl ((1R)-2-((2S)-2-(5-(4′-(2-((2S)-1-(4-(dimethylamino)benzoyl)-2-pyrrolidinyl)-1H-imidazol-5-yl)-4-biphenylyl)-1H-imidazol-2-yl)-1-pyrrolidinyl)-2-oxo-1-phenylethyl)carbamate], for which the half-maximal effective concentration (EC50) was in the range of 0.001 to 0.999 nM.

Consider `CCN(CC)[C@H](COC)C(=O)N1CCC[C@H]1c1ncc(-c2ccc(-c3ccc(-c4cnc([C@@H]5CCCN5C(=O)[C@@H](NC(=O)OC)C(C)C)[nH]4)cc3)cc2)[nH]1` [Example M91, methyl ((1S)-1-(((2S)-2-(5-(4′-(2-((2S)-1-(N,N-diethyl-O-methyl-D-seryl)-2-pyrrolidinyl)-1H-imidazol-5-yl)-4-biphenylyl)-1H-imidazol-2-yl)-1-pyrrolidinyl)carbonyl)-2-methylpropyl)carbamate], for which the EC50 lay in the range of 1 to 99 nM.

Regarding `COC(=O)N[C@@H](C(=O)N1CCC[C@H]1c1ncc(-c2ccc(-c3ccc(-c4cnc([C@@H]5CCCN5C(=O)CNC(=O)c5ccccc5)[nH]4)cc3)cc2)[nH]1)c1ccccc1` [Example 84-7, methyl ((1R)-2-((2S)-2-(5-(4′-(2-((2S)-1-(N-benzoylglycyl)-2-pyrrolidinyl)-1H-imidazol-5-yl)-4-biphenylyl)-1H-imidazol-2-yl)-1-pyrrolidinyl)-2-oxo-1-phenylethyl)carbamate], the EC50 is 1 to 99 nM.

In the case of `COC(=O)N[C@@H](C(=O)N1CCC[C@H]1c1ncc(-c2ccc(-c3ccc(-c4cnc([C@@H]5CCCN5C(=O)c5ccccc5F)[nH]4)cc3)cc2)[nH]1)c1ccccc1` [Example 84-40, methyl ((1R)-2-((2S)-2-(5-(4′-(2-((2S)-1-(2-fluorobenzoyl)-2-pyrrolidinyl)-1H-imidazol-5-yl)-4-biphenylyl)-1H-imidazol-2-yl)-1-pyrrolidinyl)-2-oxo-1-phenylethyl)carbamate], the EC50 was in the range of 0.001 to 0.999 nM.

For the compound `CCN(CC)[C@@H](C(=O)N1CCC[C@H]1c1ncc(-c2ccc(-c3ccc(-c4cnc([C@@H]5CCCN5C(=O)N5CCOCC5)[nH]4)cc3)cc2)[nH]1)c1ccccc1` [Example M51, (1R)-N,N-diethyl-2-((2S)-2-(5-(4′-(2-((2S)-1-(4-morpholinylcarbonyl)-2-pyrrolidinyl)-1H-imidazol-5-yl)-4-biphenylyl)-1H-imidazol-2-yl)-1-pyrrolidinyl)-2-oxo-1-phenylethanamine], the EC50 fell in the range of 1 to 99 nM.

For the compound `CN(C)[C@@H](C(=O)N1CCC[C@H]1c1ncc(-c2ccc(-c3ccc(-c4cnc([C@@H]5CCCN5C(=O)[C@@H](c5ccccc5)N(C)C)[nH]4)nn3)nn2)[nH]1)c1ccccc1` [Example 153c-1, (1R,1′R)-2,2′-(3,3′-bipyridazine-6,6′-diylbis(1H-imidazole-5,2-diyl(2S)-2,1-pyrrolidinediyl))bis(N,N-dimethyl-2-oxo-1-phenylethanamine)], the EC50 is 1 to 99 nM.

Take `COC(=O)N[C@@H](C(=O)N1CCC[C@H]1c1ncc(-c2ccc(-c3ccc(-c4cnc([C@@H]5CCCN5C(=O)[C@H](NC(=O)OC)c5ccccc5)[nH]4)cc3C)c(C)c2)[nH]1)c1ccccc1` [Example 122]: the EC50 fell in the range of 0.001 to 0.999 nM.

For `COC(=O)N(C)[C@H](C(=O)N1CCC[C@H]1c1ncc(-c2ccc(-c3ccc(-c4cnc([C@@H]5CCCN5C(=O)[C@H](C(C)C)N(C)C(=O)OC)[nH]4)cc3)cc2)[nH]1)C(C)C` [Example M11, methyl ((1S)-1-(((2S)-2-(5-(4′-(2-((2S)-1-((2S)-2-((methoxycarbonyl)(methyl)amino)-3-methylbutanoyl)-2-pyrrolidinyl)-1H-imidazol-5-yl)-4-biphenylyl)-1H-imidazol-2-yl)-1-pyrrolidinyl)carbonyl)-2-methylpropyl)methyl-carbamate], the EC50 fell in the range of 1 to 99 nM.

For the compound `CCN(CC)[C@@H](C(=O)N1CCC[C@H]1c1ncc(-c2ccc(-c3ccc(-c4cnc([C@@H]5CCCN5C(=O)[C@@H](Nc5ncccn5)C(C)C)[nH]4)cc3)cc2)[nH]1)c1ccccc1` [cj-11c, N-((1S)-1-(((2S)-2-(5-(4′-(2-((2S)-1-((2R)-2-(diethylamino)-2-phenylacetyl)-2-pyrrolidinyl)-1H-imidazol-5-yl)-4-biphenylyl)-1H-imidazol-2-yl)-1-pyrrolidinyl)carbonyl)-2-methylpropyl)-2-pyrimidinamine], the EC50 was 0.001 to 0.999 nM.

On to `COC(=O)N[C@@H](C(=O)N1CCC[C@H]1c1ncc(-c2ccc(-c3ccc(-c4cnc([C@@H]5CCCN5C(=O)[C@H](NC(=O)OC)c5ccccc5)[nH]4)cn3)cc2)[nH]1)c1ccccc1` [Example 134, methyl ((1R)-2-((2S)-2-(5-(6-(4-(2-((2S)-1-((2R)-2-((methoxycarbonyl)amino)-2-phenylacetyl)-2-pyrrolidinyl)-1H-imidazol-5-yl)phenyl)-3-pyridinyl)-1H-imidazol-2-yl)-1-pyrrolidinyl)-2-oxo-1-phenylethyl)carbamate], for which the EC50 lay within 0.001 to 0.999 nM.

For the compound `COC(=O)N[C@@H](C(=O)N1CCC[C@H]1c1ncc(-c2ccc(-c3ccc(-c4cnc([C@@H]5CCCN5C(=O)N5CCOCC5)[nH]4)cn3)cc2)[nH]1)c1ccccc1` [Example 144, methyl ((1R)-2-((2S)-2-(5-(4-(5-(2-((2S)-1-(4-morpholinylcarbonyl)-2-pyrrolidinyl)-1H-imidazol-5-yl)-2-pyridinyl)phenyl)-1H-imidazol-2-yl)-1-pyrrolidinyl)-2-oxo-1-phenylethyl)carbamate], the EC50 fell in the range of 0.001 to 0.999 nM.

In the case of `CCN(CC)[C@@H](C(=O)N1CCC[C@H]1c1ncc(-c2ccc(-c3ccc(-c4cnc([C@@H]5CCCN5C(=O)[C@H](C)NC(=O)OC)[nH]4)cc3)cc2)[nH]1)C(C)C` [Example M101, methyl ((1S)-2-((2S)-2-(5-(4′-(2-((2S)-1-(N,N-diethyl-D-valyl)-2-pyrrolidinyl)-1H-imidazol-5-yl)-4-biphenylyl)-1H-imidazol-2-yl)-1-pyrrolidinyl)-1-methyl-2-oxoethyl)carbamate], the concentration giving a half-maximal response (EC50) lay in the range of 100 to 999 nM.

In the case of `COC(=O)N[C@H](C(=O)N1CCC[C@H]1c1ncc(-c2ccc(-c3ccc(-c4cnc([C@@H]5CCCN5C(=O)c5c[nH]cn5)[nH]4)cc3)cc2)[nH]1)C(C)C` [Example M87, methyl ((1S)-1-(((2S)-2-(5-(4′-(2-((2S)-1-(1H-imidazol-4-ylcarbonyl)-2-pyrrolidinyl)-1H-imidazol-5-yl)-4-biphenylyl)-1H-imidazol-2-yl)-1-pyrrolidinyl)carbonyl)-2-methylpropyl)carbamate], the concentration for a half-maximal effect (EC50) was 1 to 99 nM.

Turning to `COC(=O)N[C@H](C(=O)N1CCC[C@H]1c1ncc(-c2ccc(-c3ccc(-c4cnc([C@@H]5CCCN5C(=O)[C@@H](Nc5ccncn5)C(C)C)[nH]4)cc3)cc2)[nH]1)C(C)C` [cj-15d, methyl ((1S)-2-methyl-1-(((2S)-2-(5-(4′-(2-((2S)-1-(N-4-pyrimidinyl-L-valyl)-2-pyrrolidinyl)-1H-imidazol-5-yl)-4-biphenylyl)-1H-imidazol-2-yl)-1-pyrrolidinyl)carbonyl)propyl)carbamate], the EC50 lay in the range of 0.001 to 0.999 nM.

On to `COC(=O)N[C@@H](C(=O)N1CCC[C@H]1c1ncc(-c2ccc(-c3ccc(-c4cnc([C@@H]5CCCN5C(=O)[C@@H](c5ccccc5)N(C)C)[nH]4)cc3C)c(C)c2)[nH]1)c1ccccc1` [Example 129, methyl ((1R)-2-((2S)-2-(5-(4′-(2-((2S)-1-((2R)-2-(dimethylamino)-2-phenylacetyl)-2-pyrrolidinyl)-1H-imidazol-5-yl)-2,2′-dimethyl-4-biphenylyl)-1H-imidazol-2-yl)-1-pyrrolidinyl)-2-oxo-1-phenylethyl)carbamate], for which the EC50 fell in the range of 0.001 to 0.999 nM.

As for `CN(C)[C@@H](C(=O)N1CCC[C@H]1c1ncc(-c2ccc(-c3ccc(-c4cnc([C@@H]5CCCN5C(=O)Cc5cccc6ccccc56)[nH]4)cc3)cc2)[nH]1)c1ccccc1` [Example 94-49, (1R)-N,N-dimethyl-2-((2S)-2-(5-(4′-(2-((2S)-1-(1-naphthylacetyl)-2-pyrrolidinyl)-1H-imidazol-5-yl)-4-biphenylyl)-1H-imidazol-2-yl)-1-pyrrolidinyl)-2-oxo-1-phenylethanamine], the EC50 was 0.001 to 0.999 nM.

Turning to `CCN(CC)[C@@H](C(=O)N1CCC[C@H]1c1ncc(-c2ccc(-c3ccc(-c4cnc([C@@H]5CCCN5C(=O)[C@H](Cc5ccc(OCc6ccccc6)cc5)NC(=O)OC)[nH]4)cc3)cc2)[nH]1)c1ccccc1` [cj-106, methyl ((1S)-1-(4-(benzyloxy)benzyl)-2-((2S)-2-(5-(4′-(2-((2S)-1-((2R)-2-(diethylamino)-2-phenylacetyl)-2-pyrrolidinyl)-1H-imidazol-5-yl)-4-biphenylyl)-1H-imidazol-2-yl)-1-pyrrolidinyl)-2-oxoethyl)carbamate], the EC50 lay within 0.001 to 0.999 nM.

Take `COC(=O)N[C@H](C(=O)N1CCC[C@H]1c1ncc(-c2ccc(-c3ccc(-c4cnc([C@@H]5CCCN5C(=O)[C@@H](NC5=NCCN5C)C(C)C)[nH]4)cc3)cc2)[nH]1)C(C)C` [cj-11d, methyl ((1S)-2-methyl-1-(((2S)-2-(5-(4′-(2-((2S)-1-(N-(1-methyl-4,5-dihydro-1H-imidazol-2-yl)-L-valyl)-2-pyrrolidinyl)-1H-imidazol-5-yl)-4-biphenylyl)-1H-imidazol-2-yl)-1-pyrrolidinyl)carbonyl)propyl)carbamate]: the 50% effective concentration (EC50) fell in the range of 0.001 to 0.999 nM.
